Where two headings read alike, the source gives them in different places.
Tested on: E. multilocularis metacestodes
Assay: PGI-assay: drug-induced damage on in vitro cultured metacestodes (Pathogen Box screening cascade and EC50)
Type: cell-based, Echinococcus multilocularis
Settings: for PGI release, % of the Tx-100 control, 5d / PGI release, % of the Tx-100 control, 12d / cytotoxicity at 10 µM: 10 µM, singlets; for cytotoxicity at 10 µM: Echinococcus multilocularis; for PGI release, % of Tx-100 control, average, 5d / PGI release, % of Tx-100 control, average, 12d: confirmatory screening at 10 µM in triplicates, values as % of Tx-100 control
[1] = 120 h, 5 days of incubation, read-out: PGI release, % of the Tx-100 control, 5d
[2] = 288 h, 12 days of incubation, read-out: PGI release, % of the Tx-100 control, 12d

SMILES | PGI release, % of the Tx-100 control, 5d (5 days of incubation) | PGI release, % of the Tx-100 control, 12d (12 days of incubation) | cytotoxicity at 10 µM [1] | cytotoxicity at 10 µM [2] | PGI release, % of Tx-100 control, average, 5d (5 days of incubation) | PGI release, % of Tx-100 control, average, 12d (12 days of incubation)
CC1CC1C(=O)NC1CCN(CC2(c3ccccc3)CCCCC2)CC1 (stereo not shown) [MMV020120] | -0.34% | -0.45% |  |  |  | 
O=C(Nc1cccc(-c2ccc(NCCCN3CCCC3)nc2)c1)c1ccccc1 [MMV023953] | -0.23% | -3.47% |  |  |  | 
CN1CCN(c2cc(-c3ccc(F)cc3)nc(-c3ccncc3)n2)CC1 [MMV688888] | -2.22% | 0.59% |  |  |  | 
CC(C)(C)c1cnc(NC(=O)c2ccccc2O)s1 [MMV495543] | -1.40% | -5.38% |  |  |  | 
COc1ccc(OC(C)C(=O)Nc2ccc(Cl)cc2C)cc1 (stereo not shown) [MMV202458] | 0.0146% | 6.22% |  |  |  | 
FC(F)(F)c1cccc(-c2nc3c(NCc4ccncc4)nccc3[nH]2)c1 [MMV032967] | 0.25% | -2.81% |  |  |  | 
CO[C@@H](C(=O)N1Cc2n[nH]c(NC(=O)c3ccc(N4CCN(C)CC4)cc3)c2C1)c1ccccc1 [MMV676600, Danusertib, reference compound] |  |  | -0.38% | -0.2% |  | 
CON=C(C(=O)OC)c1ccccc1CON=C(C)c1cccc(C(F)(F)F)c1 [MMV688754, Trifloxystrobin] |  |  | -1.92% | -5.74% |  | 
O=C(Nc1ccc2c(c1)B(O)OC2)c1ccccc1C(F)(F)F [MMV652003] | 1.72% | 7.32% |  |  |  | 
CC(Oc1ccccc1)C(=O)Nc1nc(-c2ccccn2)cs1 (stereo not shown) [MMV676411] | 0.12% | 0.11% |  |  |  | 
CCc1ccccc1-n1c(C)cn2c3c(=O)n(C(C(=O)OC)C(C)C)c(=O)n(C)c3nc12 (stereo not shown) [MMV688550] | -2.01% | -6.25% |  |  |  | 
N=C(N)c1ccc(-c2cc(-c3ccccc3)on2)cc1 [MMV688514] | -2.10% | 0.39% |  |  |  | 
CN1CCCC1CCO[C@](C)(c1ccccc1)c1ccc(Cl)cc1 (stereo partly shown) [MMV637229] | 4.53% | 10.67% |  |  |  | 
COc1ccc(-c2cncc3ccc(C(=O)NCCCn4ccnc4)nc23)cc1 [MMV020670] | 0.79% | -1.21% |  |  |  | 
Cc1ccc(NC(=O)c2cc(S(=O)(=O)NC(C)(C)C)ccc2C)nc1 [MMV020289] | -0.85% | -0.97% |  |  |  | 
O=C(Nc1c(O)cccc1-c1nc2c(C(=O)O)cccc2o1)c1cc(-c2ccccc2)on1 [MMV676008] | -0.73% | -0.73% |  |  |  | 
O=C(COc1cccc(F)c1)Nc1nc(-c2ccccn2)cs1 [MMV676409] | -3.57% | -0.58% |  |  |  | 
Oc1c(I)cc(I)c2cccnc12 [MMV002817, Diiodohydroxyquinoline, reference compound] |  |  | -1.42% | -0.41% |  | 
COc1cccc(OC)c1C(=O)Nc1ccc(Cl)c(-c2nc3ccccc3s2)c1 [MMV676472] | 5.75% | 51.73% |  |  | 0.98% | 2.19%
Cc1[nH]c2ccccc2c1C(c1cccs1)N1CCN(C)CC1 (stereo not shown) [MMV688768] | 19.18% | 27.24% |  |  | 5.02% | 7.48%
Cc1ccc(NC(=O)CC2COc3ccccc3O2)cc1Cl (stereo not shown) [MMV676431] | -2.82% | 0.24% |  |  |  | 
Cc1ccc(-c2cc(C(=O)Nc3cccnc3)c3cc(Br)ccc3n2)cc1 [MMV016838] | -0.19% | -0.0545% |  |  |  | 
CC(C)(C(=O)Nc1ccc(F)cc1)n1cc(-c2ccccc2F)cn1 [MMV687239] | 0.07% | 101.93% |  |  | -0.64% | -1.06%

SMILES | PGI release, % of the Tx-100 control, 5d (5 days of incubation) | PGI release, % of the Tx-100 control, 12d (12 days of incubation) | cytotoxicity at 10 µM [1] | cytotoxicity at 10 µM [2] | PGI release, % of Tx-100 control, average, 5d (5 days of incubation) | PGI release, % of Tx-100 control, average, 12d (12 days of incubation)
CC(C)(C)C(O)C(Oc1ccc(-c2ccccc2)cc1)n1cncn1 (stereo not shown) [MMV688942, Bitertanol] |  |  | -0.93% | 0.41% |  | 
CNc1nnc(Sc2cnn(-c3ccccc3)c(=O)c2Cl)s1 [MMV688763] | 6.98% | 14.69% |  |  |  | 
COc1cccc(-c2cc3c(Nc4cccnc4)nccc3[nH]2)c1 [MMV392832] | 0.24% | -1.65% |  |  |  | 
COc1ccc(C2=NN(C3CCCCCC3)C(=O)[C@@H]3CC=CC[C@H]23)cc1OCCCCOc1ccc(-c2nn[nH]n2)cc1 [MMV690027] | 9.58% | 27.83% |  |  | 0.20% | 0.24%
CC[C@@H]([C@H](C)O)n1ncn(-c2ccc(N3CCN(c4ccc(OC[C@@H]5CO[C@@](Cn6cncn6)(c6ccc(F)cc6F)C5)cc4)CC3)cc2)c1=O [MMV688774, Posaconazole, reference compound] |  |  | -0.69% | -1.09% |  | 
O=C(C1CCN(c2nnnn2-c2ccccc2)CC1)N1CCc2ccccc2C1 [MMV009135] | -0.49% | -1.30% |  |  |  | 
COc1nc2ccc(Br)cc2cc1[C@@H](c1ccccc1)[C@@](O)(CCN(C)C)c1cccc2ccccc12 [MMV689758, Bedaquiline, reference compound] |  |  | 2.07% | -3.22% |  | 
Brc1c(-c2ccc3c(c2)OCO3)nc2ncccn12 [MMV676377] | 0.59% | -0.19% |  |  |  | 
O=C(NC1CCCCC1)N1CCN(Cc2ccc3c(c2)OCO3)CC1 [MMV676444] | -3.25% | 1.66% |  |  |  | 
Nc1nc(N)c2c3c(sc2n1)CN(Cc1ccccc1)CC3 [MMV688345] | -0.50% | -0.61% |  |  |  | 
CC(C)=CCC/C(C)=C\CNCCNC1C2CC3CC(C2)CC1C3 (stereo not shown) [MMV687273] | 8.55% | 5.83% |  |  |  | 
CN1CCN(S(=O)(=O)c2ccc(-c3ccc4c(Nc5ncc(Cl)cn5)ccnc4c3)cc2)CC1 [MMV688283] | 0.90% | -1.47% |  |  |  | 
FC(F)(F)c1cnc(Sc2nnc(-c3ccncc3)o2)c(Cl)c1 [MMV011765] | 0.33% | 0.66% |  |  |  | 
O=C(C1CCCCC1)N1CC(=O)N2CCc3ccccc3C2C1 (stereo not shown) [MMV002529, Praziquantel, reference compound] |  |  | -0.87% | -0.49% |  | 
CCCCS(=O)(=O)Nc1ccc2cnn(C)c2c1 [MMV687145] | -0.86% | -2.20% |  |  |  | 
COc1ccc(S(=O)(=O)Nc2ccc(CN3CCN(C(=O)c4cccc(C#N)c4)CC3)cc2)cc1 [MMV689029] | 2.51% | -2.23% |  |  |  | 
CO[C@@H]1CN(c2ccc(C#CC3(O)CN4CCC3CC4)c(Cc3ccccc3)n2)C[C@H]1O (stereo partly shown) [MMV688415] | 3.28% | -0.74% |  |  |  | 
CCc1c(C)nc(-n2nc(C)cc2NC(=O)c2ccccc2SC)[nH]c1=O [MMV676477] | -3.90% | 30.66% |  |  | -0.18% | 2.18%
COC(=O)c1c(NC(=O)c2cc3ccccc3oc2=O)sc2c1CCN(Cc1ccccc1)C2 [MMV676480] | -0.80% | 1.41% |  |  |  | 
O=C(NC1CC1)c1ccc(N2CCOc3ccc(Cl)cc32)s1 [MMV020537] | 1.89% | 0.98% |  |  |  | 
CC(C)(C)n1nc(-c2ccccc2)c2c(N)ncnc21 [MMV688548] | -2.51% | 1.17% |  |  |  | 
CC(C)C(NC(=O)Cc1cccc2ccccc12)C(=O)Nc1cccc(C#N)c1 (stereo not shown) [MMV020591] | -0.00326% | 0.72% |  |  |  | 
